In patent US9079902B2, “Heteroaryl sodium channel inhibitors” (AMGEN INC., priority 2011, dated 2015) one finds IC50 data, which are given here for seven molecules.

By IC50 is commonly meant the concentration at which inhibition is half-maximal. Lower therefore signals greater potency in that assay.

Molecules are shown by their SMILES. Some results are limits rather than exact numbers.

The target in data set [1] is Nav 1.5 (Homo sapiens (Human), UniProt Q14524). As to the kind of experiment: Nav 1.5 in vitro assay (IonWorks Quattro population patch-clamp). The class given is cell-based. Particulars: 293 cells stably transfected with Nav 1.5; 26th pulse to -20 mV, 5 Hz. The procedure: (§1) Nav 1.7 and Nav 1.5 In Vitro Assay
(§2) 293 cells stably transfected with either Nav 1.7 or with Nav 1.5 were recorded in population patch-clamp mode with the IonWorks® Quattro automated electrophysiology system in accordance with the manufacturer's specifications (Molecular Devices, LLC, Sunnyvale, Calif.). Sodium channel currents were measured in response to a train of depolarizations that induced successively greater inactivation.
(§3) Cells were held at −110 mV for three seconds (Nav 1.7) or half a second (Nav 1.5) from a holding voltage of −15 mV, then put through a series of 26 pulses of 150 msec duration to −20 mV at a frequency of 5 Hz. Cells were then left unclamped for a period of 3 to 8 minutes while a single concentration of test compound was added. Cells were then reclamped and put through the same voltage protocol. Current at the end of the 26th pulse to −20 mV was subtracted from the peak current evoked by the 26th pulse to −20 mV to correct for leak current. Percent block was calculated for each concentration in duplicate, and IC50 curves were fitted to percent block as a function of concentration.

Data set [2] deals with Nav 1.7 (Homo sapiens (Human), UniProt Q15858). As to the kind of experiment: Nav 1.7 in vitro assay (IonWorks Quattro population patch-clamp). It counts as cell-based. Particulars: 293 cells stably transfected with Nav 1.7; 26th pulse to -20 mV, 5 Hz. The procedure: as §1, §2, §3
Background: In patch-clamp work, channel activity is measured electrically.

Sequence of Nav 1.5 (Q14524 whole entry): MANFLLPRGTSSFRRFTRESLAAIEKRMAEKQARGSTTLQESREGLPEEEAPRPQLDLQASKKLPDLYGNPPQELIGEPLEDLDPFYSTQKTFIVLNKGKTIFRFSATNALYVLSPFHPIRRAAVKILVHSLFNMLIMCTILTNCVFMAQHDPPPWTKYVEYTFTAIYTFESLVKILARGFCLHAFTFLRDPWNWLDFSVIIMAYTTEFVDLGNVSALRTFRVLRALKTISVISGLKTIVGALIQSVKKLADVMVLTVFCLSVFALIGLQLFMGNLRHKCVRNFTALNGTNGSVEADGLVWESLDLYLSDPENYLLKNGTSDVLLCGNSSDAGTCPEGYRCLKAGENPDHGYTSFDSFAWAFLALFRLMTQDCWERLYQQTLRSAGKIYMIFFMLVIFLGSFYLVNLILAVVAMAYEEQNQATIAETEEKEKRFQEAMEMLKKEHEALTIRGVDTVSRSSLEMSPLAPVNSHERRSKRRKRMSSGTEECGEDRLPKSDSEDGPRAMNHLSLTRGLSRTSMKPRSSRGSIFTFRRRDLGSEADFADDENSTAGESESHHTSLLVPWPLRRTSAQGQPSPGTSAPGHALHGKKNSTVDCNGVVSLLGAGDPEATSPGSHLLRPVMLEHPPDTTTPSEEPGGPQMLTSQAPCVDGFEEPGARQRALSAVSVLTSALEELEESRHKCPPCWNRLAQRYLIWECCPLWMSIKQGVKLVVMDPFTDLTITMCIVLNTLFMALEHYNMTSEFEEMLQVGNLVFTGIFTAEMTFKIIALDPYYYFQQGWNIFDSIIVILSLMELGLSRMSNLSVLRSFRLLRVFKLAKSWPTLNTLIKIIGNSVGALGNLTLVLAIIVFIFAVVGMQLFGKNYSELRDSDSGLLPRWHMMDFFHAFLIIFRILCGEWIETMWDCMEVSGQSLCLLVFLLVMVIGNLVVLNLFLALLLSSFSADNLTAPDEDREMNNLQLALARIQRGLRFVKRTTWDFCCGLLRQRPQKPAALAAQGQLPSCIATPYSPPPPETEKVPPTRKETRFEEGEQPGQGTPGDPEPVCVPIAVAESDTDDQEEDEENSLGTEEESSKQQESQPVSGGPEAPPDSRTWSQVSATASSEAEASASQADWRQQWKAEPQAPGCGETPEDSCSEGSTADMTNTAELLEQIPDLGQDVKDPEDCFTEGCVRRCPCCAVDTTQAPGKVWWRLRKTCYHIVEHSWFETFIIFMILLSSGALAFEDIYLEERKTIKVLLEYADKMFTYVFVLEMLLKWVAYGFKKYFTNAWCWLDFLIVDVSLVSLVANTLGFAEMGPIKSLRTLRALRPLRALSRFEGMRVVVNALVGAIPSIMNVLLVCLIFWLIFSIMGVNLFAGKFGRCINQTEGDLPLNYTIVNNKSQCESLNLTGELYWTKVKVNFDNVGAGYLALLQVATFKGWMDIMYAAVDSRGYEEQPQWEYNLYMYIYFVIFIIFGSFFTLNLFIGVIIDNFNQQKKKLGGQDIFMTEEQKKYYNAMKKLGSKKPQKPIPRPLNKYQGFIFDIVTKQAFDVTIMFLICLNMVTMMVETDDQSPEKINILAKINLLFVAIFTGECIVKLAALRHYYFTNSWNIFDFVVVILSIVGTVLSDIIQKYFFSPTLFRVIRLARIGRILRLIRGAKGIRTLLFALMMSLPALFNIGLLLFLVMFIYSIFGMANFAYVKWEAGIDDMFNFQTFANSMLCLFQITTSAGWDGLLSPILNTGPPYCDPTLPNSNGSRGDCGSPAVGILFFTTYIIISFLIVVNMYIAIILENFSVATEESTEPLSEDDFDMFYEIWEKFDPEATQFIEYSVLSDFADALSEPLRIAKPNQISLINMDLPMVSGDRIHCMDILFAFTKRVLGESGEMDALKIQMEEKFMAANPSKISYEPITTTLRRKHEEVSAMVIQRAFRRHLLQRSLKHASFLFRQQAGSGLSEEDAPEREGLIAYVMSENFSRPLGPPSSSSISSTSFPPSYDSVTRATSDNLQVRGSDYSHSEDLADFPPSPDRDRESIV
Sequence of Nav 1.7 (Q15858 whole entry): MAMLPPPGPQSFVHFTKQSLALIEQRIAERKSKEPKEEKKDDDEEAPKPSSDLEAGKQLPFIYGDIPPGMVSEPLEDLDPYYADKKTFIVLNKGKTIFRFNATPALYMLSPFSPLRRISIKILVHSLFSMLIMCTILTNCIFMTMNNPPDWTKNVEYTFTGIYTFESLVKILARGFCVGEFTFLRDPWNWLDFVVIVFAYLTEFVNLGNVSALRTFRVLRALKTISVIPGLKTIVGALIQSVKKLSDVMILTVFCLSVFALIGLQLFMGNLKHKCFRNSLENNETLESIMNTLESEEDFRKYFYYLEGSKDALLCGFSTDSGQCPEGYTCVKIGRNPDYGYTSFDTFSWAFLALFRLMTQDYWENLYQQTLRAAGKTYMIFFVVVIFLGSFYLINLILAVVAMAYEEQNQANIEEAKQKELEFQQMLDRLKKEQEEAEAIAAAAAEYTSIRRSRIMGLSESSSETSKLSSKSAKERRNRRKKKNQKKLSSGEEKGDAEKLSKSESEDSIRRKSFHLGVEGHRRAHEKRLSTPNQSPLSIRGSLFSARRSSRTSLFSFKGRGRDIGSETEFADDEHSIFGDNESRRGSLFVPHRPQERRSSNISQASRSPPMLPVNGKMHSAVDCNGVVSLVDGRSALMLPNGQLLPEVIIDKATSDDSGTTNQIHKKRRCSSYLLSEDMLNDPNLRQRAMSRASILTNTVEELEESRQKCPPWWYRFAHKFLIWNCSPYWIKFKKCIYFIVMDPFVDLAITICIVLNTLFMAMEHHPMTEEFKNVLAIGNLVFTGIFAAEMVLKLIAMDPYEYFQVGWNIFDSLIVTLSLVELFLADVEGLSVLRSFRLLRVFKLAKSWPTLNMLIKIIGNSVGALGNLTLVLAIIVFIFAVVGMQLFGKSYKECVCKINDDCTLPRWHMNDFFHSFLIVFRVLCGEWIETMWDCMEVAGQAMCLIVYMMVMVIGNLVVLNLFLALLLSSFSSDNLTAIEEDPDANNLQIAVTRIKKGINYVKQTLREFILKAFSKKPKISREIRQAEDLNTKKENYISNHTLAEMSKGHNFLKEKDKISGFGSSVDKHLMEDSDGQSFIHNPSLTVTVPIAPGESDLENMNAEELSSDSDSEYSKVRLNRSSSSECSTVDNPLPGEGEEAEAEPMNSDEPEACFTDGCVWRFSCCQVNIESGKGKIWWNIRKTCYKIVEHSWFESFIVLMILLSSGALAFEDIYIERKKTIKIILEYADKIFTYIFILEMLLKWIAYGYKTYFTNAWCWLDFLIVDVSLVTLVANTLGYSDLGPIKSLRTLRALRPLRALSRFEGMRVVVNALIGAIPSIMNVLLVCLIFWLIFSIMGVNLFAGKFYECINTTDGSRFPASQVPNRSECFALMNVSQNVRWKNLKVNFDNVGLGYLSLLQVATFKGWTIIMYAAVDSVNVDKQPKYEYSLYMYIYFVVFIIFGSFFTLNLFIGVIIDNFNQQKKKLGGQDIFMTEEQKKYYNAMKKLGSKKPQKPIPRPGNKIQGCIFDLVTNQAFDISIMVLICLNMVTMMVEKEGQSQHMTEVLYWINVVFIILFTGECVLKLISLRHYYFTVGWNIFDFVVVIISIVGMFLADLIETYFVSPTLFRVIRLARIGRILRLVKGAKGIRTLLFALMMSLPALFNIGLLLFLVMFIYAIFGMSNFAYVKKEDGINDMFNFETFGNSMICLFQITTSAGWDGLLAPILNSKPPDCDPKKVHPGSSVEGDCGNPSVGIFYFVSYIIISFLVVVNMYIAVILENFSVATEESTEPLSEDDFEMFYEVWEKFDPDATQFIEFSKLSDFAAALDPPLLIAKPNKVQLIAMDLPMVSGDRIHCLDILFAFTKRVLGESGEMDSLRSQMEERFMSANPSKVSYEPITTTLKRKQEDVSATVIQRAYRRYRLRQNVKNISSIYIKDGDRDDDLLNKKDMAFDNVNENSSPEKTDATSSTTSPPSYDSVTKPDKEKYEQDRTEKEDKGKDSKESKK

On to `Cn1nccc1-c1cc(C(F)(F)F)ccc1-c1cn(C)c2cc(S(=O)(=O)Nc3nccs3)ccc12` [Example 11, 1-Methyl-3-(2-(1-Methyl-1H-Pyrazol-5-yl)-4-(Trifluoromethyl)Phenyl)-N-(Thiazol-2-yl)-1H-Indole-6-Sulfonamide], for which the results for the concentration for half-maximal inhibition (IC50) in data set [1] and in data set [2] were over 10000 nM and 3190 nM, respectively.

`Cn1nccc1-c1cc(Cl)ccc1-c1cn(C)c2cc(S(=O)(=O)Nc3ncns3)ccc12` [Example 2, 3-(4-Chloro-2-(1-Methyl-1H-Pyrazol-5-yl)Phenyl)-1-Methyl-N-(1,2,4-Thiadiazol-5-yl)-1H-Indole-6-Sulfonamide]: the IC50 in data set [1] was over 10000 nM; in data set [2], 253 nM.

`Cn1cc(-c2ccc(C(F)(F)F)cc2C2=CCNCC2)c2ccc(S(=O)(=O)Nc3nccs3)cc21` [Example 65, 1-Methyl-3-(2-(1,2,3,6-Tetrahydropyridin-4-Yl)-4-(Trifluoromethyl)Phenyl)-N-(Thiazol-2-Yl)-1H-Indole-6-Sulfonamide 2,2,2-Trifluoroacetate]: the IC50 was over 10000 nM in data set [1] and 269 nM in data set [2].

On to `Cn1cc(-c2ccc(C(F)(F)F)cc2C#N)c2ccc(S(=O)(=O)Nc3ncns3)cc21` [Example 16, 3-(2-Cyano-4-(Trifluoromethyl)Phenyl)-1-Methyl-N-(1,2,4-Thiadiazol-5-yl)-1H-Indole-6-Sulfonamide], for which the half-inhibitory concentration (IC50) in data set [1] is over 10000 nM; in data set [2] it was 551 nM.

For the molecule `Cn1cc(-c2ccc(C(F)(F)F)cc2C2=CCNCC2)c2ccc(S(=O)(=O)Nc3ncns3)cc21` [Example 22, 1-Methyl-3-(2-(1,2,3,6-Tetrahydropyridin-4-yl)-4-(Trifluoromethyl)Phenyl)-N-(1,2,4-Thiadiazol-5-yl)-1H-Indole-6-Sulfonamide], the values for the IC50 in data set [1] and in data set [2] were over 10000 nM and 42.5 nM, respectively.

For the molecule `Cn1cc(-c2cc(-c3ccncc3)cc(C(F)(F)F)c2)c2ccc(S(=O)(=O)Nc3ncns3)cc21` [Example 15, 1-Methyl-3-(3-(Pyridin-4-yl)-5-(Trifluoromethyl)Phenyl)-N-(1,2,4-Thiadiazol-5-yl)-1H-Indole-6-Sulfonamide], the half-maximal inhibitory concentration (IC50) in data set [1] was over 10000 nM; in data set [2], 1540 nM.

In the case of `CC(=O)n1cc(-c2ccc(C(F)(F)F)cc2-c2ccnn2C)c2ccc(S(=O)(=O)Nc3ncns3)cc21` [Example 4, 1-Acetyl-3-(2-(1-Methyl-1H-Pyrazol-5-yl)-4-(Trifluoromethyl)Phenyl)-N-(1,2,4-Thiadiazol-5-yl)-1H-Indole-6-Sulfonamide], the IC50 in data set [1] is over 10000 nM; in data set [2], 50.5 nM.
